Reference: patent publication US5660842A, “Inhibition of helicobacter” (Bristol-Myers Squibb Company, priority 1995, dated 1997)
Values after ≈ are worked out from the molar mass of the structure shown. Like-named read-outs stand apart in the source and are kept apart here.

What was measured:
Helicobacter pylori [1] = experiment: Minimal inhibitory concentration (MIC) for H. pylori (Example 5); assay type: cell-based; conditions: Helicobacter pylori, read-out: MIC
Helicobacter pylori [2] = experiment: Viability of H. pylori after 1 hour in prototype nutritional compositions containing FFA or MG (Example 3, Table 6); assay type: cell-based, Helicobacter pylori (ATCC 43629); conditions: for Change in viable cell number: 1 hour
Helicobacter pylori [3] = assay type: cell-based, Helicobacter pylori (HP-2, HP-4, HP-5); conditions: for Frequency of resistant mutants (number of spontaneous mutants): ~1 × 10^8 CFU
Helicobacter pylori [4] = experiment: Bactericidal activity of MG and FFA of varying chain length (Example 4, FIG. 1); assay type: cell-based, Helicobacter pylori HP-4 (ATCC 43629); conditions: FFA tested C4:0 to C17:0; 1 hour
[5] = concentrations as low as two times the MIC

SMILES: CCCCCCCCCCCC(=O)O [Lauric Acid, lauric acid]
- MIC (Helicobacter pylori [1]; Table 7): 50 µg/mL (≈ 250 µM)
- MIC (Helicobacter pylori [1]; preliminary studies): ~50 µg/mL (≈ 250 µM)
- Change in viable cell number (Helicobacter pylori [2]; Nutrament (Formulation II), 20 mM): -0.42 LOG CFU/mL
- Change in viable cell number (Helicobacter pylori [2]; Sustacal (Formulation I), 5 mM): 0.00 LOG CFU/mL
- Change in viable cell number (Helicobacter pylori [2]; Sustacal (Formulation I), 10 mM): 0.05 LOG CFU/mL
- Change in viable cell number (Helicobacter pylori [2]; Sustacal (Formulation I), 20 mM): -3.33 LOG CFU/mL
- Change in viable cell number (Helicobacter pylori [2]; Ultracal (Formulation III), 5 mM): 0.33 LOG CFU/mL
- Change in viable cell number (Helicobacter pylori [2]; Ultracal (Formulation III), 10 mM): -1.05 LOG CFU/mL
- Change in viable cell number (Helicobacter pylori [2]; Ultracal (Formulation III), 20 mM): -3.96 LOG CFU/mL
- Inhibition in nutritional compositions (Helicobacter pylori [2]; lower levels than 20 mM): not inhibitory
- Frequency of resistance (Helicobacter pylori [3]; [5]): < 1×10^-8
- Resistant variants of H. pylori (Helicobacter pylori [3]; [5]): no resistant variants of H. pylori were found
- Frequency of resistant mutants (number of spontaneous mutants) (Helicobacter pylori [3]; strain 43529 (so in the source), 2 × MIC): < 1
- Frequency of resistant mutants (number of spontaneous mutants) (Helicobacter pylori [3]; strain 43529 (so in the source), 5 × MIC): < 1
- Frequency of resistant mutants (number of spontaneous mutants) (Helicobacter pylori [3]; strain 43529 (so in the source), 10 × MIC): < 1
- Frequency of resistant mutants (number of spontaneous mutants) (Helicobacter pylori [3]; strain 43579, 2 × MIC): < 1
- Frequency of resistant mutants (number of spontaneous mutants) (Helicobacter pylori [3]; strain 43579, 5 × MIC): < 1
- Frequency of resistant mutants (number of spontaneous mutants) (Helicobacter pylori [3]; strain 43579, 10 × MIC): < 1
- Frequency of resistant mutants (number of spontaneous mutants) (Helicobacter pylori [3]; strain 49503, 2 × MIC): < 1
- Frequency of resistant mutants (number of spontaneous mutants) (Helicobacter pylori [3]; strain 49503, 5 × MIC): < 1
- Frequency of resistant mutants (number of spontaneous mutants) (Helicobacter pylori [3]; strain 49503, 10 × MIC): < 1
- Bactericidal activity for H. pylori (Helicobacter pylori [4]): showed bactericidal activity
